This note sets out measurements from BindingDB's records for doi:10.1016/j.bmcl.2011.01.015 (Incyte, 2011).

Broadly, the pIC50 is the IC50 on a negative log10 scale, so that one unit is a factor of ten.

This assay can be described thus: Antagonist activity at human CCR5 receptor by chemotaxis assay.

Each structure is given as a SMILES string. pIC50: −log10 of the molar value.

Consider `CO[C@@H]1COCC[C@@H]1N[C@@H]1CC[C@](CC(F)(F)F)(C(=O)N2CCN(c3cc(C(F)(F)F)ccn3)CC2)C1` [((1S,3R)-3-((3S,4S)-3-methoxy-tetrahydro-2H-pyran-4-ylamino)-1-(2,2,2-trifluoroethyl)cyclopentyl)(4-(4-(trifluoromethyl)pyridin-2-yl)piperazin-1-yl)methanone], for which the negative-log IC50 (pIC50) is 7.96.
